Test results published in ChEMBL document CHEMBL1146576, “Anti-inflammatory lanostane-type triterpene acids from Piptoporus betulinus” (2003).

Tests used:
Assay type in all cases: functional
Mus musculus [1] = test: Antiinflammatory activity in mouse assessed as inhibition of TPA-induced ear edema at 400 nmol
Mus musculus [2] = test: Antiinflammatory activity in mouse assessed as inhibition of TPA-induced ear edema at 430 nmol
Mus musculus [3] = test: Antiinflammatory activity in mouse assessed as inhibition of TPA-induced ear edema at 560 nmol

Compound	inhibition (INH) (Mus musculus [1]) [%]	also measured
C=C(CC[C@@H](C)[C@H]1CC[C@@]2(C)C3=C(C[C@H](O)[C@]12C)[C@@]1(C)CC[C@@H](OC(=O)CC(C)(O)CC(=O)OC)C(C)(C)[C@@H]1CC3)[C@H](C)C(=O)O (some centres not stated)	75	–
CC1(C)[C@@H](O)CC[C@]2(C)[C@H]3C(=O)C=C4[C@@H]5C[C@@](C)(C(=O)O)CC[C@]5(C)CC[C@@]4(C)[C@]3(C)CC[C@@H]12 [ENOXOLONE]	–	inhibition (INH) (Mus musculus [2]): 24%
C=C(CC[C@@H](C)[C@H]1CC[C@@]2(C)C3=C(C[C@H](O)[C@]12C)[C@@]1(C)CC[C@@H](O)C(C)(C)[C@@H]1CC3)[C@H](C)C(=O)O [POLYPORENIC ACID A]	64	–
COc1ccc2c(c1)c(CC(=O)O)c(C)n2C(=O)c1ccc(Cl)cc1 [INDOMETHACIN]	–	inhibition (INH) (Mus musculus [3]): 16%
C=C(CC[C@@H](C(=O)O)[C@H]1[C@H](O)C[C@@]2(C)C3=CC[C@H]4C(C)(C)C(=O)CC[C@]4(C)C3=CC[C@]12C)C(C)C [POLYPORENIC ACID B]	49	–
C=C(CC[C@@H](C)[C@H]1CC[C@@]2(C)C3=C(C[C@H](O)[C@]12C)[C@@]1(C)CC[C@@H](OC(=O)C[C@](C)(O)CC(=O)OC)C(C)(C)[C@@H]1CC3)[C@H](C)C(=O)O	86	–
C=C(CC[C@@H](C)[C@H]1CC[C@@]2(C)C3=C(C[C@H](O)[C@]12C)[C@@]1(C)CC[C@@H](OC(=O)CC(=O)O)C(C)(C)[C@@H]1CC3)[C@H](C)C(=O)O	65	–
